How the values were obtained:
COX-2 = target: T1, COX-2 (Homo sapiens, UniProt P35354); test: COX-2 enzyme activity in human whole blood (LPS induced, thromboxane B2 EIA); format: cell-based; design: Human blood (≈50 mL) from male or female donors who had not received any aspirin or NSAIDs for 14 days; endogenous in cells; host or cells: human whole blood from donors, LPS-induced; conditions: test compound at 10 μM
T1 sequence (P35354 18-604): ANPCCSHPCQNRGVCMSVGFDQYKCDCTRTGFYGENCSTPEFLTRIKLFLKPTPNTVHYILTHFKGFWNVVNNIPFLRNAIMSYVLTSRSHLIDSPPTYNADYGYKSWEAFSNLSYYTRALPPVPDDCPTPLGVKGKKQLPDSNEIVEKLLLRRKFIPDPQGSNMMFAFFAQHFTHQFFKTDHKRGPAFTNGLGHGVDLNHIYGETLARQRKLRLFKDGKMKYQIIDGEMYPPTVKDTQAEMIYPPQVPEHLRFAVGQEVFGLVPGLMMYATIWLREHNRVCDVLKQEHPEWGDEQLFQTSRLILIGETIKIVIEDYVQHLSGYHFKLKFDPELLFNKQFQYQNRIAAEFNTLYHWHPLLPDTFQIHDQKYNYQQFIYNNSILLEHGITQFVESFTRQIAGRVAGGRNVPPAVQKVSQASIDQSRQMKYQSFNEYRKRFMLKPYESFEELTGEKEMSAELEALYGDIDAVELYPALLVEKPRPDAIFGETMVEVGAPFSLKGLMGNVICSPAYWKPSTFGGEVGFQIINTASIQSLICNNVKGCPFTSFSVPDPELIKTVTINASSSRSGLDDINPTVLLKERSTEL

COX-1 = COX-1 (Homo sapiens, UniProt P23219); test: COX-1 enzyme activity in human whole blood (A23187 stimulated, thromboxane B2 EIA); format: cell-based; design: Human blood (≈50 mL) from male or female donors who had not received any aspirin or NSAIDs for 14 days; endogenous in cells; host or cells: human whole blood from donors; conditions: test compound at 100 μM
Sequence of COX-1 (P23219 24-599): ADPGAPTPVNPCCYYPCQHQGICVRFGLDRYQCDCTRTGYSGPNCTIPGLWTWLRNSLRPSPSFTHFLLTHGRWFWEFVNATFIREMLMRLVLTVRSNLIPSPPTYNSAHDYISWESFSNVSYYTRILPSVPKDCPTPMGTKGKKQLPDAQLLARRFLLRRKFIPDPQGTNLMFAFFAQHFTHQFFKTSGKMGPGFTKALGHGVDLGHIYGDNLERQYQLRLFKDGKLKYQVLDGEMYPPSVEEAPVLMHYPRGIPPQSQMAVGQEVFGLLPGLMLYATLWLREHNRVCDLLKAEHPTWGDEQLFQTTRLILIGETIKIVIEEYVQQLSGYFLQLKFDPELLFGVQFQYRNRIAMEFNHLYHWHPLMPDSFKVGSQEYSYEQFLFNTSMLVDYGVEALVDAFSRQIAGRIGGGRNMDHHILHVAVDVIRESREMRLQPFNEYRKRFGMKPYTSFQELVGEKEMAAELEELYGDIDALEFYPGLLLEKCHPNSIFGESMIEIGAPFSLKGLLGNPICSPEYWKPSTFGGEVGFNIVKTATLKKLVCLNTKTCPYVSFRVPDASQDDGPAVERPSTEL

inhibition at 10 µM (COX-2) [%]	melting point [°C]	inhibition at 100 µM (COX-1) [%]	SMILES
90	83	55	CS(=O)(=O)c1ccc(-c2ccccc2C=C2CCCCC2)cc1 [Example 24e, 1-(2-(Cyclohexylidenemethyl)phenyl)-4-(methylsulfonyl)benzene]
10	97 to 98	25	CS(=O)(=O)c1ccc(-c2ccccc2Cc2cccc(F)c2)cc1 [Example 26, 1-(2-((3-Fluorophenyl)methyl)phenyl)-4-(methylsulfonyl)benzene]
40	160 to 162	70	CS(=O)(=O)c1ccc(-c2cc3c(cc2Cc2cc(F)cc(F)c2)OCCO3)cc1 [Example 20, 1-(7-((3,5-Difluorophenyl)methyl)(2H, 3H-benzo(3,4-e)1,4-dioxin-6-yl))-4-(methylsulfonyl)benzene]

Reference: patent publication US6825185B2, “Substituted aryl compounds as novel cyclooxygenase-2 selective inhibitors, compositions and methods of use” (NitroMed, Inc., priority 2000, dated 2004)
